From patent publication US6432433B1, “Liquid biocidal composition of a formaldehyde adduct and an isothiazolone and method of use” (ISP Investments Inc., priority 2000, dated 2002)
Several values for one entry are separate records, joined by “and”; a condition that tells them apart may be missing. Identical values can stand only once. Like-named read-outs stand apart in the source and are kept apart here.

Key:
Format in all cases: cell-based
[1] = tested on: Gliocladium virens (ATCC 9645); assay: MIC on Potato Dextrose Agar; conditions: for MIC: Trichoderma virens
Procedure: (§1) The agar was inoculated to contain about 1×10^6 CFU/ml bacterial cells or fungal spores.
(§2) The MIC were taken as end points of activity. End points for the mixture of NMPFA (DMO, MBO or HMAE) and BIT were then compared with the end points for the pure active compound when employed individually.
(§3) Synergism was determined by a commonly used method described by Kull, A. C., Eisman, P. C, Sylwestrowicz ,H., D. and Mayer, R. L. (1961). Applied Microbiology, 9:538 using the ratio determined by:
(§4) Qa/QA+Qb/QB=Synergy Index (SI)
(§5) where QA is the concentration of the formaldehyde adduct in parts per million (ppm), acting alone, which produced an end point. Qa is the concentration of the formaldehyde adduct in ppm, in the mixture, which produced an end point. QB is the concentration of BIT in ppm, acting alone, which produced an end point and Qb is the concentration of BIT in ppm, in the mixture, which produced an end point.
(§6) When the sum of Qa/QA+Qb/QB is greater than one, antagonism is indicated. When the sum is equal to one, additivity is indicated.

[2] = tested on: Chaetomium globosum (ATCC 6205); assay: MIC on Potato Dextrose Agar; conditions: C. globosum; PDA, 28°, 7-10 days
Procedure: as §1, §2, §3, §4, §5, §6

[3] = tested on: Penicillium funiculosum (ATCC 11797); assay: MIC on Potato Dextrose Agar; conditions: P. funiculosum; PDA, 28°, 7-10 days
Procedure: as §1, §2, §3, §4, §5, §6

[4] = tested on: Aspergillus niger (ATCC 6275); assay: MIC on Potato Dextrose Agar; conditions: A. niger; PDA, 28°, 7-10 days
Procedure: as §1, §2, §3, §4, §5, §6

[5] = tested on: Aureobasidium pullulans (ATCC 9348); assay: MIC on Potato Dextrose Agar; conditions: A. pullulans; PDA, 28°, 7-10 days
Procedure: as §1, §2, §3, §4, §5, §6

[6] = tested on: mixed culture of P. aeruginosa, E. cloacae, B. subtilis, B. megaterium and B. licheniformis; assay: In-can preservation of latex paint (ASTM D2574-97), two challenges; conditions: polyvinyl acrylic paint, 32° C., mixed inoculum, rechallenged after 7 days
Procedure: The efficacy of each individual compound or their combination was measured in a latex paint artificially contaminated with a mixed inoculum. The microbiological evaluations shown as examples, are based on ASTM D2574-97, “Resistance of emulsion paints in the container to the attack of microorganisms”. Briefly, paint samples (e.g. polyvinyl acrylic, PCL 717) were prepared to contain different concentrations of each compound or their mixtures in different concentrations and ratios. Each paint sample thus prepared was then inoculated with a mixed culture of P. aeruginosa, E. cloacae, B. subtilis, B. megaterium and B. licheniformis (final concentration of about 10^6 CFU/ml) and rechallenged after 7 days (final concentration of about 10^7 CFU/ml). Paint samples were incubated at 32° C. for the duration of the test and sampled for the presence of viable bacteria on TSA plates. A paint sample was considered appropriately preserved if no bacterial growth was detected after six days in both challenge assays. […]
1. The end-point activity in ppm obtained when no viable bacteria was detected after both challenges in a paint sample containing the compound A alone (QA), for compound A in the mixture (Qa), for compound B alone (QB) or for compound B in the mixture (Qb). […]
3. The calculated Synergy Index (SI), as described above

[7] = tested on: Pseudomonas aeruginosa (ATCC 10145); assay: MIC on Tryptic Soy Agar; conditions: P. aeruginosa; TSA, 32° C., 48 hours
Procedure: as §1, §2, §3, §4, §5, §6

[8] = tested on: Staphylococcus aureus (ATCC 6538); assay: MIC on Tryptic Soy Agar; conditions: S. aureus; TSA, 32° C., 48 hours
Procedure: as §1, §2, §3, §4, §5, §6

[9] = tested on: Bacillus subtilis (ATCC 27328); assay: MIC on Tryptic Soy Agar; conditions: for MIC: Bacillus subtilis, read-out: MIC end point, compound alone (QA / QB)
Procedure: as §1, §2, §3, §4, §5, §6

[10] = tested on: Escherichia coli (ATCC 11229); assay: MIC on Tryptic Soy Agar; conditions: E. coli; TSA, 32° C., 48 hours
Procedure: as §1, §2, §3, §4, §5, §6

[11] = tested on: Enterobacter cloacae (ATCC 13047); assay: MIC on Tryptic Soy Agar; conditions: E. cloacae; TSA, 32° C., 48 hours
Procedure: as §1, §2, §3, §4, §5, §6

[12] = B. subtilis, TSA, 32° C., 48 hours

Row | MIC ([1]; ATCC9645, G. virens, PDA, 28°, 7-10 days, read-out: MIC end point, compound alone (QA / QB)) | MIC ([9]; ATCC27328, B. subtilis, TSA, 32° C., 48 hours) | Compound | MIC end point, compound alone (QA / QB) ([1]; G. virens, PDA, 28°, 7-10 days) | MIC end point, compound alone (QA / QB) [2] | MIC end point, compound alone (QA / QB) [3] | MIC end point, compound alone (QA / QB) [4] | MIC end point, compound alone (QA / QB) [5] | End-point activity (no viable bacteria detected after both challenges), compound alone (QA / QB) [6] | MIC end point, compound alone (QA / QB) [7] | MIC end point, compound alone (QA / QB) [8] | MIC end point, compound alone (QA / QB) [9, 12] | MIC end point, compound alone (QA / QB) [10] | MIC end point, compound alone (QA / QB) [11] | MIC ([1]; ATCC9645, read-out: MIC end point, compound alone (QA / QB)) | MIC ([9]; ATCC27328, 48 h)
1 |  |  | O=c1[nH]sc2ccccc12 [BIT, 1,2-benzisothiazolin-3-one, reference compound] | 100 ppm | 250 ppm | 25 ppm | 250 ppm | 50 ppm | 170.0 ppm | 250.0 ppm | 50 ppm | 25.0 ppm and 25 ppm | 50.0 ppm | 2500 ppm |  | 
2 | 770 µg/mL | 385 µg/mL | CC1(C)COCN1 [DMO, 4,4-dimethyloxazolidine] |  |  |  |  |  |  |  |  |  |  |  |  | 
3 |  |  | OCCNCO [HMAE, 2-[(hydroxymethyl)amino]ethanol] |  |  |  |  |  |  |  |  |  |  |  | 1000 µg/mL | 250 µg/mL
4 |  |  | CC(O)CN(C)CC(C)OCO (centres unmarked) [NMPFA, N-methyl-2-hydroxymethyleneoxypropyl-2′-hydroxypropylamine] | >2,000 ppm | >2,000 ppm | 250 ppm | 1,000 ppm | 500 ppm | 1,000 ppm | 1,000 ppm | 1,000 ppm | 500 ppm | 1,000 ppm | 1,000 ppm |  | 
